Legend:
[1] = tested on: CNE-2; experiment: Antiproliferative activity against human CNE-2 cells assessed as reduction in cell viability; type: functional, cell-based
[2] = tested on: A549; experiment: Antiproliferative activity against human A549 cells assessed as reduction in cell viability; type: functional, cell-based

Row | Structure (SMILES) | IC50 [1] | IC50 [2]
1 | Cc1ccc(C(=O)Nc2ncc(Cc3cccc(Cl)c3)s2)cc1 | 2990 nM | > 50000 nM
2 | CCCCCCC(=O)Nc1ncc(Cc2ccc(OC)cc2)s1 | 2030 nM | > 50000 nM

Source: ChEMBL document CHEMBL5321225, “DeepCancerMap: A versatile deep learning platform for target- and cell-based anticancer drug discovery” (Eur J Med Chem, 2023)
